The target of data set [1] is T1, PIM-1 (Homo sapiens (Human), UniProt P11309). The data set is described as follows: Pim-1 kinase inhibition assay (Promega Kinase-Glo). The data set is classed as biochemical. The conditions noted are these: read-out: Compound IC50 on Pim1. From the text:
One illustrative manner in which Pim-1 kinase activity can be determined is by quantifying the amount of ATP remaining in solution after an in vitro Pim-1 kinase reaction. The Kinase-Glo Assay Kit (Promega, Inc., Madison, Wis.) allows this. The amount of ATP remaining in the solution after the kinase reaction serves as a substrate for the luciferase to catalyze luciferin to oxyluciferin plus one photon of light. Thus, the luminescent signal read by the Luminoskan Ascent Instrument (Thermo Electron Corp., Milford, Mass.) correlates with the amount of ATP present after the kinase reaction and inversely correlates with the amount of kinase activity. […] These assays are set up in duplicate 50 ul volumes in white, flat bottom 96 well plates. […] This solution is incubated at 30 degrees Celsius at 360 rpm for two hours. Following the incubation, 50 ul of Kinase-Glo reagent is added to each well, including all positive and negative control wells, and incubated at room temperature for 15 minutes. […] The IC50 values can then be calculated for each inhibitor tested.

The target in another data set is hERG (Homo sapiens (Human), UniProt Q12809). The data set is described as follows: hERG Fast Patch assay (WuXiApptec). It counts as cell-based.
Sequence of hERG (Q12809 whole entry): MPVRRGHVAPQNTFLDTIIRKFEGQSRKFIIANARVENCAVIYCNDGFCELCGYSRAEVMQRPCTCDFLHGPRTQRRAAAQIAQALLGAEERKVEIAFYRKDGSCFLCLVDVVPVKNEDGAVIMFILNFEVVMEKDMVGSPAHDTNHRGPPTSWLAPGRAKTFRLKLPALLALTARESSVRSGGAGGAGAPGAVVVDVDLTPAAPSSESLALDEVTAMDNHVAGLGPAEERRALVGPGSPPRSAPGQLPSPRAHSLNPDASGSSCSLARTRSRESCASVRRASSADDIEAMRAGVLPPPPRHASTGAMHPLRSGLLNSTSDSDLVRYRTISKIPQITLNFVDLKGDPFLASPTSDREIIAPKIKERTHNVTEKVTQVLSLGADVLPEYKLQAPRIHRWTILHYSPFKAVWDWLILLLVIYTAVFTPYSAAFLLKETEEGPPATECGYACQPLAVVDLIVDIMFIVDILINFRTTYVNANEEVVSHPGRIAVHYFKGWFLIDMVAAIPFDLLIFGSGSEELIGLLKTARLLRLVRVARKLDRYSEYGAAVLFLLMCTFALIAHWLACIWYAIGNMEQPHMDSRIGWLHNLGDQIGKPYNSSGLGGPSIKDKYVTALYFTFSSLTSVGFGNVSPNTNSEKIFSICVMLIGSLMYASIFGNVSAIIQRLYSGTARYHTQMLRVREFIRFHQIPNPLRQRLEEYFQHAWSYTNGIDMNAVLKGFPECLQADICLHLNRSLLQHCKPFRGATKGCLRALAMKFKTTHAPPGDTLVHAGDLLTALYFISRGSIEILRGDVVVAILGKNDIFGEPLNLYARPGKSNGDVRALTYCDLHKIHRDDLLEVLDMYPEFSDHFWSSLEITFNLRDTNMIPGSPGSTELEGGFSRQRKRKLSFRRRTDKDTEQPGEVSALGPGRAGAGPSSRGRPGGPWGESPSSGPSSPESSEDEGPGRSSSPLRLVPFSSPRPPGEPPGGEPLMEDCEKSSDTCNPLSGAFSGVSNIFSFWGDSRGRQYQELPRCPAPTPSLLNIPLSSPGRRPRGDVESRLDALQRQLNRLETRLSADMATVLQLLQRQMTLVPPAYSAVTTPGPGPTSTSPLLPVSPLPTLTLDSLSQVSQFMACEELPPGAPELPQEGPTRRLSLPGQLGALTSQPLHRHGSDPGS
For data set [2], the system named is phosphatidyl inositol-3-kinase (PI3K) family. Briefly: Selectivity study. The data set is classed as biochemical.
For data set [3], the system named is MV-4-11 (FLT3-ITD) xenografts. The data set is described as follows: MV-4-11 mouse xenograft study. It counts as in vivo. From the text: (§1) Male and female Nu/Nu mice were purchased from Harlan Sprague Dawley (Indianapolis, Ind.). Female Nu/Nu mice were used for all xenograft evaluations with the exception of the PC-3 xenografts where male Nu/Nu mice were used. Cell lines were expanded in vitro in complete media, and if adherent were harvested by trypsin-EDTA, centrifuged and resuspended in PBS 1:1 with Matrigel (BD Bioscienes). Cells were inoculated subcutaneously in the right hind flank of mice. When tumors reached 100-200 mm^3 by caliper measurement, mice were randomized and dosing of SGI-9481 or vehicle control began and continued every day for 5 days (QD×5) with 2 days off for 18-21 days. Tumor volumes and body weights were determined twice a week, and tumor weights were measured at the completion of the translational xenograft studies.

For data set [4], the system named is ML-2 cells (wild-type FLT3) xenografts. The data set is described as follows: ML-2 mouse xenograft study. The data set is classed as in vivo. The conditions noted are these: ML-2 (wild-type FLT3) xenografts.
From the text: as §1

The test system of another data set is UM-UC-3 xenograft tumors. Briefly: UM-UC-3 established mouse xenograft tumors. The data set is classed as in vivo.
From the text: as §1, with “When tumors reached 100-200 mm^3 by caliper measurement, mice were randomized and dosing of SGI-9481 or vehicle control began and continued every day for 5 days (QD×5) with 2 days off for 18-21 days.” left out

Another data set relates to PC-3 xenograft tumors. Briefly: PC-3 established mouse xenograft tumors. It counts as in vivo.
From the text: as §1, with “When tumors reached 100-200 mm^3 by caliper measurement, mice were randomized and dosing of SGI-9481 or vehicle control began and continued every day for 5 days (QD×5) with 2 days off for 18-21 days.” left out

The subject of another data set is 22RV1/PIM-1 xenografts. Briefly: 22RV1/PIM-1 over-expression mouse tumor xenograft. The data set is classed as in vivo.
From the text: as §1
(§2) The prostate cancer cell line 22RV1 engineered to over-express PIM-1 as previously described (Mumenthaler, et al, Mol. Cancer Ther., 2009, 8(10)2882-93) was evaluated in vivo. A second model engineered to over-express PIM-2 was established using the NIH-3T3 mouse fibroblast cell line.

Data set [5] in a line: Pharmacokinetic study in PC-3 tumor-burdened mice. The data set is classed as in vivo, mouse. To be noted: 200 mg/kg.
Another data set relates to NIH-3T3/PIM-2 xenografts. The data set is described as follows: NIH-3T3/PIM-2 over-expression mouse tumor xenograft. The data set is classed as in vivo.
From the text: as §1, §2

In data set [6] the target is T1, PIM-1. Briefly: PIM-1/BAD over-expression phospho-BAD (Ser112) AlphaScreen assay in HEK-293 cells. The data set is classed as cell-based. The conditions noted are these: PIM-1/BAD over-expression in HEK-293 cells; read-out: average EC50, PIM-1 specific cellular activity (BAD Ser112 phosphorylation). The procedure: HEK-293 cells (1×10^4) were seeded in a 96-well plate using EMEM media with serum and incubated overnight at 37° C. in 5% CO2. […] Cells were serum starved for an additional 18 hours, then treated 2 hours with various concentrations of SGI-9481 or 0.5% carrier DMSO control. Media was removed and cells were lysed using 25 μl 1× lysis buffer from the AlphaScreen SureFire Phospho-BAD (Ser112) kit from Perkin Elmer. Lysates (4 μl) were transferred to a 384-well proxiplate, and 5 μl of acceptor mix was added to each well and incubated for 2 hours at room temperature. Donor mix (2 μl) was added to each well, and samples incubated for 2 hours at room temperature and reactions measured on an Envision plate reader (Perkin Elmer) with AlphaScreen capabilities. Non-specific phosphorylation of BAD was subtracted using values from PIM-1 KD transfected cells, and the remaining wells were normalized to the DMSO control wells. EC50 values were calculated using GraphPad Prism software (La Jolla, Calif.).
A general note: In Alpha technology, singlet oxygen from a donor bead excites a nearby acceptor bead.

Setting [7] is: 125 mg/kg, less than with 200 mg/kg.

The structures appear in SMILES notation. pEC50, pIC50: −log10 of the molar value. Where two headings read alike, the source gives them in different places.

T1 sequence (P11309 whole entry): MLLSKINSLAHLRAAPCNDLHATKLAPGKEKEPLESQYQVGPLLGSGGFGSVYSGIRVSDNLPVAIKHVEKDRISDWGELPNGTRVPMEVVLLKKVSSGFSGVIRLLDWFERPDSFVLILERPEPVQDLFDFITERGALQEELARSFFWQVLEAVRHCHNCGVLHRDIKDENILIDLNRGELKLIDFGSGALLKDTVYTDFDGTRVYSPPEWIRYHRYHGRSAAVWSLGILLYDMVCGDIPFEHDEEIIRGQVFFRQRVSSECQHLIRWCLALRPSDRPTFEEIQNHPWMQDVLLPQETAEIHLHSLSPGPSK

Usually pIC50 stands for the negative decadic logarithm of the IC50, by convention in mol/L. As for `N[C@H]1CC[C@H](Nc2ccc3ncc(-c4cccc(OC(F)(F)F)c4)n3n2)CC1` [Compound 8-8, (3-(3-(Trifluoromethoxy)phenyl)imidazo[1,2-b]pyridazin-6-yl)cyclohexane-trans-1,4-diamine], on PIM-1 [1] (Table IV), the pIC50 is 8.40.
In the case of `C[C@]1(O)CC[C@H](Nc2ccc3ncc(-c4cccc(C(F)(F)F)c4)n3n2)CC1` [Compound 8-30, 1-Methyl-4-((3-(3-(trifluoromethyl)phenyl)imidazo[1,2-b]pyridazin-6-yl)amino)-trans-cyclohexanol], the figures for the pIC50 on PIM-1 [1] (Table IV) and on hERG were 6.99 and 4.92, respectively.
A word on the pEC50: it is −log10 of the EC50, conventionally taken in molar units. Regarding `CC(C)(O)[C@H]1CC[C@H](Nc2ccc3ncc(-c4cccc(C(F)(F)F)c4)n3n2)CC1` [Compound 8-31], at PIM-1 [1] (Table IV), the pIC50 was 9.00. In data set [2], the “activity against multiple members of the PI3K family” value is “inhibitory activity”. The “effect on established xenografts” value in data set [3] is recorded as “induced regressions”. Moreover, the tumor growth inhibition result (in data set [4]; with UM-UC-3 xenograft tumors (setting [7]); with PC-3 xenograft tumors (setting [7])) was “significant tumor growth inhibition” each time. In addition, the “body weight or gross adverse toxicity” value in the data set with UM-UC-3 xenograft tumors (oral dosing 200 mg/kg) and with PC-3 xenograft tumors (oral dosing 200 mg/kg) was “no significant changes in body weight or gross adverse toxicity” each time. The “tumor growth by volume (caliper) and final tumor weight” value in the data set with UM-UC-3 xenograft tumors (oral dosing 200 mg/kg) and in the data set with PC-3 xenograft tumors (oral dosing 200 mg/kg) was “significantly reduced” throughout. Besides, the subcutaneous tumor growth entry in the data set on 22RV1/PIM-1 xenografts (22RV1/PIM-1 + compound vs 22RV1/PIM-1 + vehicle) is listed as “significantly reduced”; in the data set with NIH-3T3/PIM-2 xenografts (NIH-3T3/PIM-2 + compound vs NIH-3T3/PIM-2 + vehicle) it was “significantly inhibited”. The body weight changes entry in the data set on 22RV1/PIM-1 xenografts (22RV1/PIM-1 xenograft mice) and in the data set with NIH-3T3/PIM-2 xenografts (NIH-3T3/PIM-2 xenograft mice) was “No significant changes in body weight” in each case. Besides, the “plasma and tumor tissue levels” value in data set [5] was “above the in vitro proliferation EC50”. Moreover, the negative logarithm of the EC50 (pEC50) at PIM-1 [6] was 7.17.
For `CO[C@H]1CC[C@H](Nc2ccc3ncc(-c4cccc(C(F)(F)F)c4)n3n2)CC1` [Compound 8-32, 4-(trans-Methoxycyclohexyl)-3-(3-(trifluoromethyl)phenyl)imidazo[1,2-b]pyridazin-6-amine], the pIC50 on PIM-1 [1] (Table IV) is 6.94.
Turning to `C[C@]1(O)CC[C@H](Nc2ccc3ncc(-c4cccc(Cl)c4)n3n2)CC1` [Compound 8-36, 4-((3-(3-Chlorophenyl)imidazo[1,2-b]pyridazin-6-yl)amino)-1-methyl-trans-cyclohexano], the pIC50 at PIM-1 [1] (Table IV) was 6.84.
Take `CC(C)(O)[C@H]1CC[C@H](Nc2ccc3ncc(-c4cccc(Cl)c4)n3n2)CC1` [Compound 8-37]: the negative-log IC50 (pIC50) on PIM-1 [1] (Table IV) was 8.40; against hERG it was less than 4.52.
With `CC(C)(O)[C@H]1CC[C@H](Nc2ccn3ncc(-c4cccc(C(F)(F)F)c4)c3n2)CC1` [Compound 8-56], at hERG, the pIC50 was less than 4.52.
Compound `CC(C)(O)[C@H]1CC[C@H](Nc2ccn3ncc(-c4cccc(Cl)c4)c3n2)CC1` [Compound 8-63] had a negative logarithm of the IC50 (pIC50) against hERG of less than 4.52.
Regarding `CC(C)(N)[C@H]1CC[C@H](Nc2ccc3ncc(-c4cccc(Cl)c4)n3n2)CC1` [Compound 8-79, N-(trans-4-(2-aminopropan-2-yl)cyclohexyl)-3-(3-chlorophenyl)imidazo[1,2-b]pyridazin-6-amine], the pIC50 on PIM-1 [1] (Table IV) was 8.70.
For `CO[C@H]1CC[C@H](Nc2ccc3nnc(-c4cccc(OC(F)(F)F)c4)n3c2)CC1` [Compound 8-99, 4-(trans-Methoxycyclohexyl)-3-(3-(trifluoromethoxy)phenyl)-[1,2,4]triazolo[4,3-a]pyridin-6-amine], the pIC50 on PIM-1 [1] (Table V) was 7.08.
In the case of `C[C@]1(O)CC[C@H](Nc2ccc3nnc(-c4cccc(C(F)(F)F)c4)n3c2)CC1` [Compound 8-108, 1-Methyl-4-((3-(3-(trifluoromethyl)phenyl)-[1,2,4]triazolo[4,3-a]pyridin-6-yl)amino)-trans-cyclohexanol], at PIM-1 [1] (Table V), the pIC50 was 7.15.
For the compound `CO[C@H]1CC[C@H](Nc2ccc3nnc(-c4cccc(Cl)c4)n3c2)CC1` [Compound 8-113, 4-(trans-Methoxycyclohexyl)-3-(3-chlorophenyl)-[1,2,4]triazolo[4,3-a]pyridin-6-amine], at PIM-1 [1] (Table V), the pIC50 was 6.14.

These data come from patent US9416132B2, “Substituted imidazo[1,2-b]pyridazines as protein kinase inhibitors” (Tolero Pharmaceuticals, Inc., priority 2011, dated 2016).
